Test results published in the supplement of paper PMC10307832.

Key:
Assay in all cases: relative viability (nuclei count vs DMSO), 5 days (fraction); higher = more cells survive
HCC-827 = test system: HCC-827
Outline: (§1)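 Relative viability was taken as the ratio of nuclei in treated wells to nuclei in vehicle wells. Lung cancer cell lines in 1536-well plates received compounds by pin tool one day after seeding, either one drug alone or a fixed anchor-drug dose plus five library-drug doses (not always all listed) in √10 steps. Nuclei were counted on 4× images after 5 days of treatment, and values are medians of duplicate plates.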

HCC-366 = test system: HCC-366
Outline: as §1

A-427 = test system: A-427
Outline: as §1

SW 1573 = test system: SW 1573
Outline: as §1

NCI-H1734 = test system: NCI-H1734
Outline: as §1

SK-LU-1 = test system: SK-LU-1
Outline: as §1

LC-2-ad = test system: LC-2-ad
Outline: as §1

NCI-H2347 = test system: NCI-H2347
Outline: as §1

NCI-H1975 = test system: NCI-H1975
Outline: as §1

NCI-H1993 = test system: NCI-H1993
Outline: as §1

SK-MES-1 = test system: SK-MES-1
Outline: as §1

NCI-H1355 = test system: NCI-H1355
Outline: as §1

NCI-H1915 = test system: NCI-H1915
Outline: as §1

NCI-H2228 = test system: NCI-H2228
Outline: as §1

NCI-H1792 = test system: NCI-H1792
Outline: as §1

NCI-H2170 = test system: NCI-H2170
Outline: as §1

RERF-LC-KJ = test system: RERF-LC-KJ
Outline: as §1

LCLC-103H = test system: LCLC-103H
Outline: as §1

NCI-H23 = test system: NCI-H23
Outline: as §1

NCI-H650 = test system: NCI-H650
Outline: as §1

NCI-H1755 = test system: NCI-H1755
Outline: as §1

UMC-11 = test system: UMC-11
Outline: as §1

NCI-H2342 = test system: NCI-H2342
Outline: as §1

Cc1cn(-c2cc(NC(=O)c3ccc(C)c(Nc4nccc(-c5cccnc5)n4)c3)cc(C(F)(F)F)c2)cn1 [Nilotinib] + Cc1nc(Nc2ncc(C(=O)Nc3c(C)cccc3Cl)s2)cc(N2CCN(CCO)CC2)n1 [Dasatinib] (partner 0.075 µM)
relative viability (HCC-827; first compound 0.001 µM): 0.301 | relative viability (HCC-827; first compound 0.003162 µM): 0.308 | relative viability (HCC-827; first compound 0.01 µM): 0.329 | relative viability (HCC-827; first compound 0.03162 µM): 0.283 | relative viability (HCC-827; first compound 0.1 µM): 0.284 | relative viability (HCC-366; first compound 0.001 µM): 0.614 | relative viability (HCC-366; first compound 0.003162 µM): 0.938 | relative viability (HCC-366; first compound 0.01 µM): 0.958 | relative viability (HCC-366; first compound 0.03162 µM): 0.4 | relative viability (HCC-366; first compound 0.1 µM): 0.181 | relative viability (A-427; first compound 0.001 µM): 0.663 | relative viability (A-427; first compound 0.003162 µM): 0.728 | relative viability (A-427; first compound 0.01 µM): 0.72 | relative viability (A-427; first compound 0.03162 µM): 0.54 | relative viability (A-427; first compound 0.1 µM): 0.1 | relative viability (SW 1573; first compound 0.001 µM): 0.398 | relative viability (SW 1573; first compound 0.003162 µM): 0.455 | relative viability (SW 1573; first compound 0.01 µM): 0.749 | relative viability (SW 1573; first compound 0.03162 µM): 0.234 | relative viability (SW 1573; first compound 0.1 µM): 0.261 | relative viability (NCI-H1734; first compound 0.001 µM): 0.355 | relative viability (NCI-H1734; first compound 0.003162 µM): 0.477 | relative viability (NCI-H1734; first compound 0.01 µM): 0.506 | relative viability (NCI-H1734; first compound 0.03162 µM): 0.345 | relative viability (NCI-H1734; first compound 0.1 µM): 0.304 | relative viability (SK-LU-1; first compound 0.001 µM): 0.196 | relative viability (SK-LU-1; first compound 0.003162 µM): 0.146 | relative viability (SK-LU-1; first compound 0.01 µM): 0.21 | relative viability (SK-LU-1; first compound 0.03162 µM): 0.177 | relative viability (SK-LU-1; first compound 0.1 µM): 0.177 | relative viability (LC-2-ad; first compound 0.001 µM): 0.512 | relative viability (LC-2-ad; first compound 0.003162 µM): 0.701 | relative viability (LC-2-ad; first compound 0.01 µM): 0.574 | relative viability (LC-2-ad; first compound 0.03162 µM): 0.43 | relative viability (LC-2-ad; first compound 0.1 µM): 0.387 | relative viability (NCI-H2347; first compound 0.001 µM): 0.302 | relative viability (NCI-H2347; first compound 0.003162 µM): 0.344 | relative viability (NCI-H2347; first compound 0.01 µM): 0.344 | relative viability (NCI-H2347; first compound 0.03162 µM): 0.267 | relative viability (NCI-H2347; first compound 0.1 µM): 0.264 | relative viability (NCI-H1975; first compound 0.001 µM): 0.312 | relative viability (NCI-H1975; first compound 0.003162 µM): 0.39 | relative viability (NCI-H1975; first compound 0.01 µM): 0.309 | relative viability (NCI-H1975; first compound 0.03162 µM): 0.318 | relative viability (NCI-H1975; first compound 0.1 µM): 0.209 | relative viability (NCI-H1993; first compound 0.001 µM): 0.625 | relative viability (NCI-H1993; first compound 0.003162 µM): 0.546 | relative viability (NCI-H1993; first compound 0.01 µM): 0.495 | relative viability (NCI-H1993; first compound 0.03162 µM): 0.516 | relative viability (NCI-H1993; first compound 0.1 µM): 0.627 | relative viability (SK-MES-1; first compound 0.001 µM): 0.306 | relative viability (SK-MES-1; first compound 0.003162 µM): 0.334 | relative viability (SK-MES-1; first compound 0.01 µM): 0.308 | relative viability (SK-MES-1; first compound 0.03162 µM): 0.29 | relative viability (SK-MES-1; first compound 0.1 µM): 0.207 | relative viability (NCI-H1355; first compound 0.001 µM): 0.653 | relative viability (NCI-H1355; first compound 0.003162 µM): 0.751 | relative viability (NCI-H1355; first compound 0.01 µM): 0.556 | relative viability (NCI-H1355; first compound 0.03162 µM): 0.46 | relative viability (NCI-H1355; first compound 0.1 µM): 0.333 | relative viability (NCI-H1915; first compound 0.001 µM): 0.324 | relative viability (NCI-H1915; first compound 0.003162 µM): 0.314 | relative viability (NCI-H1915; first compound 0.01 µM): 0.354 | relative viability (NCI-H1915; first compound 0.03162 µM): 0.27 | relative viability (NCI-H1915; first compound 0.1 µM): 0.141 | relative viability (NCI-H2228; first compound 0.003162 µM): 0.622 | relative viability (NCI-H2228; first compound 0.01 µM): 0.628 | relative viability (NCI-H2228; first compound 0.03162 µM): 0.424 | relative viability (NCI-H2228; first compound 0.1 µM): 0.159 | relative viability (NCI-H1792; first compound 0.001 µM): 0.614 | relative viability (NCI-H1792; first compound 0.003162 µM): 0.591 | relative viability (NCI-H1792; first compound 0.01 µM): 0.785 | relative viability (NCI-H1792; first compound 0.1 µM): 1.36 | relative viability (NCI-H2170; first compound 0.001 µM): 0.591 | relative viability (NCI-H2170; first compound 0.003162 µM): 0.576 | relative viability (NCI-H2170; first compound 0.01 µM): 0.736 | relative viability (NCI-H2170; first compound 0.03162 µM): 0.465 | relative viability (NCI-H2170; first compound 0.1 µM): 0.406 | relative viability (RERF-LC-KJ; first compound 0.001 µM): 0.716 | relative viability (RERF-LC-KJ; first compound 0.003162 µM): 0.947 | relative viability (RERF-LC-KJ; first compound 0.01 µM): 0.833 | relative viability (RERF-LC-KJ; first compound 0.03162 µM): 0.71 | relative viability (RERF-LC-KJ; first compound 0.1 µM): 0.549 | relative viability (LCLC-103H; first compound 0.001 µM): 0.414 | relative viability (LCLC-103H; first compound 0.003162 µM): 0.414 | relative viability (LCLC-103H; first compound 0.01 µM): 0.51 | relative viability (LCLC-103H; first compound 0.03162 µM): 0.338 | relative viability (LCLC-103H; first compound 0.1 µM): 0.434 | relative viability (NCI-H23; first compound 0.001 µM): 0.691 | relative viability (NCI-H23; first compound 0.003162 µM): 0.681 | relative viability (NCI-H23; first compound 0.01 µM): 0.823 | relative viability (NCI-H23; first compound 0.03162 µM): 0.309 | relative viability (NCI-H23; first compound 0.1 µM): 0.508 | relative viability (NCI-H650; first compound 0.001 µM): 0.462 | relative viability (NCI-H650; first compound 0.003162 µM): 0.479 | relative viability (NCI-H650; first compound 0.01 µM): 0.49 | relative viability (NCI-H650; first compound 0.03162 µM): 0.408 | relative viability (NCI-H650; first compound 0.1 µM): 0.379 | relative viability (NCI-H1755; first compound 0.001 µM): 0.376 | relative viability (NCI-H1755; first compound 0.003162 µM): 0.381 | relative viability (NCI-H1755; first compound 0.01 µM): 0.404 | relative viability (NCI-H1755; first compound 0.03162 µM): 0.276 | relative viability (NCI-H1755; first compound 0.1 µM): 0.184 | relative viability (UMC-11; first compound 0.001 µM): 0.41 | relative viability (UMC-11; first compound 0.003162 µM): 0.655 | relative viability (UMC-11; first compound 0.01 µM): 0.649 | relative viability (UMC-11; first compound 0.1 µM): 0.247 | relative viability (NCI-H2342; first compound 0.001 µM): 0.277 | relative viability (NCI-H2342; first compound 0.003162 µM): 0.303 | relative viability (NCI-H2342; first compound 0.01 µM): 0.302 | relative viability (NCI-H2342; first compound 0.03162 µM): 0.273 | relative viability (NCI-H2342; first compound 0.1 µM): 0.298
